Measurements from patent US20150051257A1, “SULPHONAMIDE DERIVATIVES OF BENZYLAMINE FOR THE TREATMENT OF CNS DISEASES” (ADAMED SP. Z O.O, priority 2012, published 2015).

Columns and labels:
D2S (h) = target: T1, D2S (h) (Homo sapiens, UniProt P14416); assay: Radioligand binding assay, dopaminergic receptor D2; details: test compound 1×10^−6M; [3H]methyl-spiperone; human recombinant (HEK-293 cells)
T1 construct: expressed in transfected cells; host or cells: HEK-293 cells
Protocol: (§1) Specific ligand binding to the receptors is defined as the difference between the total binding and the non-specific binding determined in the presence of an excess of unlabelled ligand.
(§2) The results are expressed as a percent of control specific binding ((measured specific binding/control specific binding)×100%) obtained in the presence of the test compounds. The compounds were tested for their affinity to receptors at a concentration of 1×10^−6M.
(§3) Conditions and methodology of in vitro tests are given by reference to the literature in Table 1, and the results of tests for representative compounds are given in Table 2 (dopaminergic receptors D2 and D3), in Table 3 (dopaminergic receptors D1 and D4.4), in Table 4 (serotoninergic receptors 5-HT1A, 5-HT2A, 5-HT6, 5-HT7), in table 5 (serotoninergic receptors 5-HT2C), in Table 6 (sigma o receptors), in Table 7 (adrenergic receptors α1, histaminergic receptors H1 and muscarinic receptors M3), in Table 8 (adrenergic receptors α2C) and in Table 9 (serotonin transporter receptors SERT).

D3 (h) = target: T2, D3 (h) (Homo sapiens, UniProt P35462); assay: Radioligand binding assay, dopaminergic receptor D3; details: test compound 1×10^−6M; [3H]methyl-spiperone; human recombinant (CHO cells)
T2 construct: expressed in transfected cells; host or cells: CHO cells
T2 sequence (P35462 whole entry): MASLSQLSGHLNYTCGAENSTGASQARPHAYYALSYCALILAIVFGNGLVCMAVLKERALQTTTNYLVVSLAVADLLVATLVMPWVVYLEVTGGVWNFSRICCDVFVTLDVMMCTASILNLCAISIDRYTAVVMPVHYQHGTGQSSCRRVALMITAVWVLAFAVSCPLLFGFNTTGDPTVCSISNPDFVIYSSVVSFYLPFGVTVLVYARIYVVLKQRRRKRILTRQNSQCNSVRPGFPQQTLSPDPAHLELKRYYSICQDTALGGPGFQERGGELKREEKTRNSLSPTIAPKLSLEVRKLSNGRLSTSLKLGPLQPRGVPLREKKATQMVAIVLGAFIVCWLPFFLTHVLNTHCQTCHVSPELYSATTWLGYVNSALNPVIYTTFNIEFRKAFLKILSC
Protocol: as §1, §2, §3

D1 (h) = target: T3, D1 (h) (Homo sapiens, UniProt P21728); assay: Radioligand binding assay, dopaminergic receptor D1; details: test compound 1×10^−6M; [3H]SCH 23390; human recombinant (CHO cells)
T3 construct: expressed in transfected cells; host or cells: CHO cells
T3 sequence (P21728 whole entry): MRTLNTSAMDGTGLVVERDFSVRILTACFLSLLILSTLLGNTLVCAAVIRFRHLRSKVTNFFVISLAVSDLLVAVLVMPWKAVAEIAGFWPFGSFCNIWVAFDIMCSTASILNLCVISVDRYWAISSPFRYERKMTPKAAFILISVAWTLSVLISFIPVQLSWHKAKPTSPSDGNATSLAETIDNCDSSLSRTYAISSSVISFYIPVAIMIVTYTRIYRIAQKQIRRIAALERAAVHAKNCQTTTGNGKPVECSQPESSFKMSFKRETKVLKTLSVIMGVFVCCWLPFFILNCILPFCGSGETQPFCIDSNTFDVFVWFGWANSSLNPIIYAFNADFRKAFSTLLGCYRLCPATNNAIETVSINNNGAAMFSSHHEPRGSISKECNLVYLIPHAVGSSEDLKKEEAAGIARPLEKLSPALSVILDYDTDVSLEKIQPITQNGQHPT
Protocol: as §1, §2, §3

D4.4 (h) = target: T4, D4.4 (h) (Homo sapiens, UniProt P21917); assay: Radioligand binding assay, dopaminergic receptor D4.4; details: test compound 1×10^−6M; [3H]methyl-spiperone; human recombinant (CHO cells)
T4 construct: expressed in transfected cells; host or cells: CHO cells
T4 sequence (P21917 1-419): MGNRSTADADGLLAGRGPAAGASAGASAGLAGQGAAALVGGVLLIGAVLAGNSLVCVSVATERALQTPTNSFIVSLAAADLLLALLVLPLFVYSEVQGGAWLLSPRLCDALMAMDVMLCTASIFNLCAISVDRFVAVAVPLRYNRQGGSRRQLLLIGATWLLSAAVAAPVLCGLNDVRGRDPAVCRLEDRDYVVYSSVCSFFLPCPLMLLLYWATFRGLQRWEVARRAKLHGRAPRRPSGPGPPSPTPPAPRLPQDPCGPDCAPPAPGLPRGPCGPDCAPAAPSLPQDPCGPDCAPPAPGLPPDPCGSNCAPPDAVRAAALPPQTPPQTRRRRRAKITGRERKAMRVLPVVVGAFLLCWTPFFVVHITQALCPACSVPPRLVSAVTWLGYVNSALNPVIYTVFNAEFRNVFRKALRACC
Protocol: as §1, §2, §3

5-HT1A (h) = target: T5, 5-HT1A (h) (Homo sapiens, UniProt P08908); assay: Radioligand binding assay, serotoninergic receptor 5-HT1A; details: test compound 1×10^−6M; [3H]8-OH-DPAT; human recombinant (HEK-293 cells)
T5 construct: expressed in transfected cells; host or cells: HEK-293 cells
T5 sequence (P08908 1-422): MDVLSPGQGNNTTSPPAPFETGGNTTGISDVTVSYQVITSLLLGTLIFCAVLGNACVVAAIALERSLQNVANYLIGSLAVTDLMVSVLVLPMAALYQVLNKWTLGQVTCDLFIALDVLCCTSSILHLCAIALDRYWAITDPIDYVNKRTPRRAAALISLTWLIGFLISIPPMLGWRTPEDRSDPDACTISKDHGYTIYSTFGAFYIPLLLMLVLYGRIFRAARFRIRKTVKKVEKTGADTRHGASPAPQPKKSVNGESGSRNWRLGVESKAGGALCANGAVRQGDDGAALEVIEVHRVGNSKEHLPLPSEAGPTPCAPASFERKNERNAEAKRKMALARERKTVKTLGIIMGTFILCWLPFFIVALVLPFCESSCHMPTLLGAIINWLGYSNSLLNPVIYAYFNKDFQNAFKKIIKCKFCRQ
Protocol: as §1, §2, §3

5-HT2A (h) = target: T6, 5-HT2A (h) (Homo sapiens, UniProt P28223); assay: Radioligand binding assay, serotoninergic receptor 5-HT2A; details: test compound 1×10^−6M; [3H]ketanserin; human recombinant (HEK-293 cells)
T6 construct: expressed in transfected cells; host or cells: HEK-293 cells
T6 sequence (P28223 whole entry): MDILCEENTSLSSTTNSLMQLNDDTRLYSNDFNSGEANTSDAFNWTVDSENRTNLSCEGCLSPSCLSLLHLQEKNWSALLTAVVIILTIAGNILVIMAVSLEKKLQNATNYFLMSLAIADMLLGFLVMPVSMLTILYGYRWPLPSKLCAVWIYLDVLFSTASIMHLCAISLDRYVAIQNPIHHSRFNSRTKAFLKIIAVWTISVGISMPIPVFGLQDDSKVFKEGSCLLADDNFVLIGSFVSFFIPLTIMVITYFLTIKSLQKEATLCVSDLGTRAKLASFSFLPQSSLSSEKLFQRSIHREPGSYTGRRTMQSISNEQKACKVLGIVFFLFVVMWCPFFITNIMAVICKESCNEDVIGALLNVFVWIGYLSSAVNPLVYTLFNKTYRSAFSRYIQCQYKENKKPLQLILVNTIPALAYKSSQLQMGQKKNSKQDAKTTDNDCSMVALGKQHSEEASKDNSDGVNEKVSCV
Protocol: as §1, §2, §3

5-HT6 (h) = target: T7, 5-HT6 (h) (Homo sapiens, UniProt P50406); assay: Radioligand binding assay, serotoninergic receptor 5-HT6; details: test compound 1×10^−6M; [3H]LSD; human recombinant (CHO cells)
T7 construct: expressed in transfected cells; host or cells: CHO cells
T7 sequence (P50406 whole entry): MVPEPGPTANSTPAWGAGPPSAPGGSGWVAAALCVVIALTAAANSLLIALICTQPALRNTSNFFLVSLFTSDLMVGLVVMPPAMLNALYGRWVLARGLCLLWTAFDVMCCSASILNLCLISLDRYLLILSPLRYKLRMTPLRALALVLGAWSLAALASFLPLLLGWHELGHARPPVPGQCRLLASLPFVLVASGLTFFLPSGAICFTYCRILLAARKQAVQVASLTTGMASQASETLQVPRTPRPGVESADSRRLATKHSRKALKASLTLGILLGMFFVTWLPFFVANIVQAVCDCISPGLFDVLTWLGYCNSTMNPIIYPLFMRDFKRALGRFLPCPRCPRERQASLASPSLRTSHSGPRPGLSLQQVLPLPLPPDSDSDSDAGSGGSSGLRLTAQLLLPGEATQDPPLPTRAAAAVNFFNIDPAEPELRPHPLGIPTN
Protocol: as §1, §2, §3

5-HT7 (h) = target: T8, 5-HT7 (h) (Homo sapiens, UniProt P34969); assay: Radioligand binding assay, serotoninergic receptor 5-HT7; details: test compound 1×10^−6M; [3H]LSD; human recombinant (CHO cells)
T8 construct: expressed in transfected cells; host or cells: CHO cells
T8 sequence (P34969 whole entry): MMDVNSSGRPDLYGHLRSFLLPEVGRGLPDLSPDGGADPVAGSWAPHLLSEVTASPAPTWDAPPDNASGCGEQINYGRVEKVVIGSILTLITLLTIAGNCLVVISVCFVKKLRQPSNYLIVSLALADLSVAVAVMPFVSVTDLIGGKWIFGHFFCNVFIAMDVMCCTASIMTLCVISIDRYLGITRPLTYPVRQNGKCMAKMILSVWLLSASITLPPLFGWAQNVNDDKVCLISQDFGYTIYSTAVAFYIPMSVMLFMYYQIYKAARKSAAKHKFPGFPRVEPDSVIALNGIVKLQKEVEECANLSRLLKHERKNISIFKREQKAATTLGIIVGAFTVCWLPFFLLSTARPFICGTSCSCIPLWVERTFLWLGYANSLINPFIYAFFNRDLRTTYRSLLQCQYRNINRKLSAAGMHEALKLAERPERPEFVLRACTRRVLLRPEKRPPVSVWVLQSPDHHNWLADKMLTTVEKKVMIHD
Protocol: as §1, §2, §3

5-HT2C (h) = target: T9, 5-HT2C (h) (Homo sapiens, UniProt P28335); assay: Radioligand binding assay, serotoninergic receptor 5-HT2C; details: test compound 1×10^−6M; [3H]mesulergine; human recombinant (HEK-293 cells)
T9 construct: expressed in transfected cells; host or cells: HEK-293 cells
T9 sequence (P28335 33-458): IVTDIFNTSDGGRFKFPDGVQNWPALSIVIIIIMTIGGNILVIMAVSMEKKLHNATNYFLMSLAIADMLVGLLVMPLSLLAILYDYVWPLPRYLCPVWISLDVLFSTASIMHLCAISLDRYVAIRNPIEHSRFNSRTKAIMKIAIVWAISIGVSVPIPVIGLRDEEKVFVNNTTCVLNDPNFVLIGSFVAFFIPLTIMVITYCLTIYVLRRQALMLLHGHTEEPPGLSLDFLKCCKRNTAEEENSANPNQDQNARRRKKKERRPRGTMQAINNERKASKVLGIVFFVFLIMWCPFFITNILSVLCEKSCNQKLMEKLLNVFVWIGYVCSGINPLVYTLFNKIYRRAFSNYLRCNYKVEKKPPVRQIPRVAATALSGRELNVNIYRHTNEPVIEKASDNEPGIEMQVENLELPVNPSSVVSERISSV
Protocol: as §1, §2, §3

σ (non-selective) = assay: Radioligand binding assay, σ receptors; details: test compound 1×10^−6M; [3H]DTG; rat cerebral cortex
Protocol: as §1, §2, §3

α1 (non-selective) = assay: Radioligand binding assay, adrenergic α1 receptors; details: test compound 1×10^−6M; [3H]prazosin; rat cerebral cortex
Protocol: as §1, §2, §3

H1 (h) = target: T10, H1 (h) (Homo sapiens, UniProt P35367); assay: Radioligand binding assay, histaminergic H1 receptor; details: test compound 1×10^−6M; [3H]pyrilamine; human recombinant (HEK-293 cells)
T10 construct: expressed in transfected cells; host or cells: HEK-293 cells
T10 sequence (P35367 whole entry): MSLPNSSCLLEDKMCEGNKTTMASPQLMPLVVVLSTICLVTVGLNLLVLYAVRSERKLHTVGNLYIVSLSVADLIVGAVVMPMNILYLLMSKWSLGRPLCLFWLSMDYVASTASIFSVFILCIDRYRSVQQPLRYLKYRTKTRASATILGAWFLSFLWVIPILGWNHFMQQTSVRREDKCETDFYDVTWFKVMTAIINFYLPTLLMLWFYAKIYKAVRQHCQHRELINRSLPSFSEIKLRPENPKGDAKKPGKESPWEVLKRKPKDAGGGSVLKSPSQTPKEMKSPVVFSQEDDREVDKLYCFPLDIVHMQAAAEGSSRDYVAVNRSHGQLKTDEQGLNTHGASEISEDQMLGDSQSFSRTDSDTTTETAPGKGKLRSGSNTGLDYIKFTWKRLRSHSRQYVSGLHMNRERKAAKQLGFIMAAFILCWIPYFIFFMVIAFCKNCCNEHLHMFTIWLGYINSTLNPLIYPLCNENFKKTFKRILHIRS
Protocol: as §1, §2, §3

M3 (h) = target: T11, M3 (h) (Homo sapiens, UniProt P20309); assay: Radioligand binding assay, muscarinic M3 receptor; details: test compound 1×10^−6M; [3H]4-DAMP; human recombinant (CHO cells)
T11 construct: expressed in transfected cells; host or cells: CHO cells
T11 sequence (P20309 whole entry): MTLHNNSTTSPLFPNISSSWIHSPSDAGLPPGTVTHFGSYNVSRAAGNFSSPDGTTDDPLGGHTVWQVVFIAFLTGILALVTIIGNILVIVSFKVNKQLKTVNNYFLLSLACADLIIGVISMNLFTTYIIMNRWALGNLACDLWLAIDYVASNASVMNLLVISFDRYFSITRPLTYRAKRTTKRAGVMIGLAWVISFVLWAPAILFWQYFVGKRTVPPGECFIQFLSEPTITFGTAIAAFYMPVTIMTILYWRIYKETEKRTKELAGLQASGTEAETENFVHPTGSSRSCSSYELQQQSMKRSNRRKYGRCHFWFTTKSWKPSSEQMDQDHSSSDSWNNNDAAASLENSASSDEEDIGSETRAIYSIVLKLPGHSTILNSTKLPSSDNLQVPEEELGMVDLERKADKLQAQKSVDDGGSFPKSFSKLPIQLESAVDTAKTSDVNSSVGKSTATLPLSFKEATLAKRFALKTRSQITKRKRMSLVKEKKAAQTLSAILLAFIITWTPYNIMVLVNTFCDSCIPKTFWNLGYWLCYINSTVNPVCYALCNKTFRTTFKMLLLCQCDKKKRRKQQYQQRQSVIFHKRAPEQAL
Protocol: as §1, §2, §3

α2C (h) = target: T12, α2C (h) (Homo sapiens, UniProt P18825); assay: Radioligand binding assay, adrenergic receptor α2C; details: test compound 1×10^−6M; [3H]RX 821002; human recombinant (CHO cells)
T12 construct: expressed in transfected cells; host or cells: CHO cells
T12 sequence (P18825 1-462): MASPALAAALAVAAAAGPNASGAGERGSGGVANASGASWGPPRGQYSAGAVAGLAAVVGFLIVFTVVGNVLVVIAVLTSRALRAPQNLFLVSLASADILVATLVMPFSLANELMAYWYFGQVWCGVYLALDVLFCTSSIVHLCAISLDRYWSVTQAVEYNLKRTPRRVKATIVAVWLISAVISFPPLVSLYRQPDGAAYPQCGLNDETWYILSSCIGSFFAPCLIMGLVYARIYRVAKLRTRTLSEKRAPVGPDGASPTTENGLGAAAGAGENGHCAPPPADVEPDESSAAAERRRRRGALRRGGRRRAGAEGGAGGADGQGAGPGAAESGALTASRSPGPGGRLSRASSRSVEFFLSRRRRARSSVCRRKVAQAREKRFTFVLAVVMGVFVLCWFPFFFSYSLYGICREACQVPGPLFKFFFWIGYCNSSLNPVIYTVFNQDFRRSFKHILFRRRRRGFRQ
Protocol: as §1, §2, §3

SERT (h) = target: T13, SERT (h) (Homo sapiens, UniProt P31645); assay: Radioligand binding assay, serotonin transporter (SERT); details: test compound 1×10^−6M; [3H]imipramine; human recombinant (CHO cells)
T13 construct: expressed in transfected cells; host or cells: CHO cells
T13 sequence (P31645 whole entry): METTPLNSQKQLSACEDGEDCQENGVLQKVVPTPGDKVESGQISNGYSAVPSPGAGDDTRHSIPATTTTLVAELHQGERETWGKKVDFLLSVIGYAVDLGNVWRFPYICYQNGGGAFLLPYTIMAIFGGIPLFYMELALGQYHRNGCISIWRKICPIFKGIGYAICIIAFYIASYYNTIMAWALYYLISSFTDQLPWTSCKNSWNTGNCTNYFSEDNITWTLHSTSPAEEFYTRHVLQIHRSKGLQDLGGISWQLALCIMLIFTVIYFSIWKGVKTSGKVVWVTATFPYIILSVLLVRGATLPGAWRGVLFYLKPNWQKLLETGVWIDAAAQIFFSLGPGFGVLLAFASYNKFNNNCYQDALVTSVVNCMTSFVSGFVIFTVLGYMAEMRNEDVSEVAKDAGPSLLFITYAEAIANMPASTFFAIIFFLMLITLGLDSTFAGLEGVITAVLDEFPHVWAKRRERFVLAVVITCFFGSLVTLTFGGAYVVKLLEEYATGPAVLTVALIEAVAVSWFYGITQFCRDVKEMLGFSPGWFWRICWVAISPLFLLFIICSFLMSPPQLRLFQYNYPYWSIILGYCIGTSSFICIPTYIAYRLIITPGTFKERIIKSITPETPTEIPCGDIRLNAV
Protocol: as §1, §2, §3

[1] = target: T14, hERG potassium channels (KCNH2 gene, expressed in CHO cells) (Homo sapiens, UniProt Q12809); assay: Ability to block hERG potassium channel (electrophysiology, IonWorks Quattro); type: cell-based; details: cloned hERG in CHO cells; test pulse +40 mV; concentration not given
T14 construct: expressed in transfected cells; host or cells: CHO cells
Protocol: Ability to Block hERG Potassium Channel Ability to block hERG potassium channels was determined using the electrophysiological method and cloned hERG potassium channels (KCNH2 gene, expressed in CHO cells) as biological material. The effects were evaluated using IonWorks™ Quattro system (MDS-AT).
hERG current was elicited using a pulse pattern with fixed amplitudes (conditioning pre-pulse: −80 mV for 25 ms; test pulse: +40 mV for 80 ms) from a holding potential of 0 mV. hERG current was measured as a difference between the peak current at 1 ms after the test step to +40 mV and the steady-state current at the end of the step to +40 mV.
Data acquisition and analyses were performed using the lonWorks Quattro™ system operation software (version 2.0.2; Molecular Devices Corporation, Union City, Calif.). Data were corrected for leak current.
The hERG block was calculated as: % Block=(1−I TA/IControl)×100%, where IControl and ITA were the currents elicited by the test pulse in control and in the presence of a test compound, respectively.

Male CD-1 mice = assay: d-Amphetamine-induced locomotor hyperactivity in mice; type: in vivo; details: compound i.p., d-amphetamine s.c., immediately before the test, ambulation counted during 2 h
Protocol: Potential antipsychotic activity was tested for the representative compound 60 in mouse model of psychosis, involving the induction of locomotor hyperactivity by administering psychotomimetic substance—d-amphetamine. The ability of a test compound to remove that effect is a measure of potential antipsychotic activity.
Male CD-1 mice weighing 20-22 g derived from accredited animal facility localized at Medical College of Jagiellonian University were group-housed for 3-4 day period in polycarbonate Makrolon type 3 cages (dimensions 26.5×15×42 cm) in an environmentally controlled, experimental room (ambient temperature 22-20C; relative humidity 50-60%; 12:12 light:dark cycle, lights on at 8:00), in groups of 15. Standard laboratory food (Morigram, Agropol) and filtered water were freely available. On the day before experiments the equipment produces “white noise” was turned on for 30 minutes and mice or rats were weighted exact to 1 g. Animals were assigned randomly to treatment groups. […]
The locomotor activity was recorded with an Opto M3 multi-channel activity monitor (MultiDevice Software v.1.3, Columbus Instruments). Mice were individually placed in plastic cages (22×12×13 cm) and then the crossings of each channel (ambulation) were counted during 2 h with data recording every 5 minutes. […]

T1 sequence (P14416 1-414 isoform P14416-2): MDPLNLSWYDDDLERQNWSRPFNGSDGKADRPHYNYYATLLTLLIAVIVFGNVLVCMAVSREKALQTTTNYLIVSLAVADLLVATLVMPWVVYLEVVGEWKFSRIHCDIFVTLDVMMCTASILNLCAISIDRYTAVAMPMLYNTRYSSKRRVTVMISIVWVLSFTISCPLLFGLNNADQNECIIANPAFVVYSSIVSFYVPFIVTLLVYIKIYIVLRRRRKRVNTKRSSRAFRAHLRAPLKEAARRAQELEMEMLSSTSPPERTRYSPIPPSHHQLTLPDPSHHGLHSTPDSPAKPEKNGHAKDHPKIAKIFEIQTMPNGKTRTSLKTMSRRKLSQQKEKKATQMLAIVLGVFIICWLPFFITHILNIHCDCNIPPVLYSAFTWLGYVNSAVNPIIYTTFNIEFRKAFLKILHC

| Compound | D2 [%] (D2S (h)) | D3 [%] (D3 (h)) | D1 [%] (D1 (h)) | D4.4 [%] (D4.4 (h)) | 5-HT1A [%] (5-HT1A (h)) | 5-HT2A [%] (5-HT2A (h)) | 5-HT6 [%] (5-HT6 (h)) | 5-HT7 [%] (5-HT7 (h)) | 5-HT2C [%] (5-HT2C (h)) | σ [%] (σ (non-selective)) | α1 [%] (α1 (non-selective)) | H1 [%] (H1 (h)) | M3 [%] (M3 (h)) | α2C [%] (α2C (h)) | SERT [%] (SERT (h)) | hERG [%] (% Block) [1] | MED (Minimum Effective Dose) (Male CD-1 mice) [mg/kg] |
| --- | --- | --- | --- | --- | --- | --- | --- | --- | --- | --- | --- | --- | --- | --- | --- | --- | --- |
| N-[3-[[3-(6-fluoro-1,2-benzoxazol-3-yl)propylamino]methyl]phenyl]naphthalene-1-sulphonamide [Compound 54] | 94 | 76 | 27 | 54 | 43 | 80 | 88 | 90 | 17 | 50 | 48 | 7 | 2 | 32 | 42 |  |  |
| CN(CCCc1noc2cc(F)ccc12)Cc1cccc(NS(=O)(=O)c2ccccc2)c1 [Compound 60, N-[3-[[3-(6-fluoro-1,2-benzoxazol-3-yl)propylmethylamino]methyl]phenyl]benzenesulphonamide] |  |  |  |  |  |  |  |  |  |  |  |  |  |  |  | 6 | 10 |
| CN(CCCc1noc2cc(F)ccc12)Cc1cccc(NS(=O)(=O)c2ccc(C(C)(C)C)cc2)c1 [Compound 72, 4-tert-butylo-N-[3-[[3-(6-fluoro-1,2-benzoxazol-3-yl)propylmethylamino]methyl]-phenyl]benzenesulphonamide] | 93 | 63 | 45 | 60 | 30 | 87 | 99 | 93 | 23 | 80 | 77 | 64 | 25 | 81 | 42 |  |  |
